Columns and labels:
[1] = tested on: VEGF-A-induced corneal HA and LA; test: Corneal micropocket assay with VEGF-A pellets (vessel density); format: in vivo, mice; settings: VEGF-A micropellet, day 7
Protocol: (§1) FIG. 6. ATLa Regulate IL-1β- and VEGF-A-induced Corneal HA and LA. Hydron pellets containing IL-1β or VEGF-A were implanted into the corneas on day 0. ATLa or vehicle was subconjunctivally injected every 48 h from 0 to 7 days after pellet implantation (4 corneas per treatment, for each pellet-type). A. Slit-lamp examination was performed on day 7 and representative images are shown. B. The density of blood vessels (CD31^high/LYVE-1^−) or lymphatic vessels (CD31^lowLYVE-1^high) covering each cornea was analyzed. Values are expressed as the mean (±SEM) of each treatment group (4 corneas per group) and the data are representative of two independent experiments (*P<0.05 vs vehicle-treated group, t-test).
(§2) The corneal micropocket assay in mice and quantification of the resultant NV has been described previously.^16,17 In brief, 0.3 μl of hydron pellets (IFN Sciences, New Brunswick, N.J.) containing 30 ng of murine IL-1β (R&D Systems, Minneapolis, Minn.) or 200 ng of VEGF-A (gift from BRB Preclinical Repository, National Cancer Institute) were prepared and implanted into the corneal stroma of male BALB/c mice. After 7 days the animals were sacrificed and the corneas were harvested for quantitative analysis of HA and LA.
(§3) BALB/c mice were randomized to receive ATLa, or vehicle (normal saline) by subconjunctival injection in a masked fashion after suture or hydron pellet placement. […]

[2] = tested on: IL-1β-induced corneal HA and LA; test: Corneal micropocket assay with IL-1β pellets (vessel density); format: in vivo, mice; settings: IL-1β micropellet, day 7
Protocol: as §1, §2, §3

VEGFR-2 mRNA = test: Real-time PCR of VEGFR-2 mRNA in suture-induced inflamed corneas; format: in vivo, mice; settings: 24 h and 72 h after suture placement; vs vehicle-treated group
Protocol: (§4) FIG. 4. The Impact of Lipoxin on the mRNA Expression of VEGFs and VEGFRs in Inflamed Corneas. ATLa or vehicle was subconjunctivally injected at 0 h and 48 h after suture placement. For each compound treatment, corneas were harvested from a group of mice at 24 h, and another group at 72 h after suture placement, as well as from normal untreated control corneas (6 corneas per group). (A) VEGF ligand species (VEGF-A, VEGF-C, VEGF-D) and (B) VEGFRs (VEGFR2 and VEGFR3) were tested by real-time PCR and normalized to GAPDH mRNA. Values are expressed as fold change over the normal control cornea. Results represent the mean (±SEM) of three samples per group (each sample consisted of 2 pooled corneas), and the data are representative of two independent experiments (*P<0.05, **P<0.001, ***P<0.0005, vs vehicle-treated group, t-test). […]
(§5) BALB/c mice were randomized to receive ATLa, or vehicle (normal saline) by subconjunctival injection in a masked fashion after suture or hydron pellet placement. […] ATLa was synthesized as described previously.^20 The physical properties were monitored routinely via LC/MS/MS matching the reported biological and physical properties prior to analysis in present experiments. […]

VEGFR-3 mRNA = test: Real-time PCR of VEGFR-3 mRNA in suture-induced inflamed corneas; format: in vivo, mice; settings: after suture placement; vs vehicle-treated controls
Protocol: as §4, §5

IL-1β mRNA = test: Real-time PCR of IL-1β mRNA in suture-induced inflamed corneas; format: in vivo, mice; settings: 24 h and 72 h after suture placement; vs vehicle-treated controls
Protocol: (§6) FIG. 3. Lipoxin Reduces Cytokine mRNA Expressions in Inflamed Corneas. ATLa or vehicle was subconjunctivally injected at 0 h and 48 h after suture placement. For each compound treatment, corneas were harvested from a group of mice at 24 h, and another group at 72 h after suture placement, as well as from normal untreated control corneas (6 corneas per group). mRNA levels of inflammatory cytokines (including IL-1α, IL-1β, and TNF-α) were determined by real-time PCR. Data were normalized to GAPDH mRNA and values were expressed as the fold change over normal control corneas. Results represent the mean (±SEM) of three samples per group (each sample consisted of 2 pooled corneas), and data are representative of two independent experiments (*P<0.05, **P<0.001 vs vehicle-treated group, t-test). […]
as §5

macrophages = test: Macrophage infiltration in suture-induced inflamed corneas (F4/80 staining of cross-sections); format: in vivo, mice; settings: 72 h after suture placement
Protocol: ATLa or vehicle was subconjunctivally injected at 0 h and 48 h after suture placement. For each compound treatment, eyes were enucleated from a group of mice at 24 h, and another group at 72 h after suture placement (3 eyes per group). Cross-sections were stained with anti-neutrophil (NIMP-R14) or anti-macrophage (F4/80) Ab, and 12 sections were used to enumerate the respective leukocyte populations. Results represent the mean (±SEM) of 3 eyes per group (*P<0.05, **P<0.001 vs vehicle-treated group, t-test), and data are representative of two independent experiments. […]
(§7) BALB/c mice were randomized to receive ATLa, or vehicle (normal saline) by subconjunctival injection in a masked fashion after suture or hydron pellet placement. […] ATLa was synthesized as described previously.^20 The physical properties were monitored routinely via LC/MS/MS matching the reported biological and physical properties prior to analysis in present experiments.
(§8) Full thickness corneal tissue or 8 μm-frozen sections were fixed in acetone for 15 minutes at room temperature. […] Finally, the samples were covered with mounting medium (Vector Laboratories, Burlingame, Calif.) and analyzed by epifluorescence microscopy (Eclipse E800; Nikon, Tokyo, Japan). […]

VEGF-C mRNA = test: Real-time PCR of VEGF-C mRNA in suture-induced inflamed corneas; format: in vivo, mice; settings: 24 h and 72 h after suture placement; vs vehicle-treated group
Protocol: as §4, §5

[3] = stable analog of LXA4/ATL; reference 36; cited from earlier work
[4] = tested on: macrophage phagocytosis (e.g. of apoptotic neutrophils); settings: reference 26; cited from earlier work
VEGF-A mRNA = test: Real-time PCR of VEGF-A mRNA in suture-induced inflamed corneas; format: in vivo, mice; settings: 24 h and 72 h after suture placement; vs vehicle-treated group
Protocol: as §4, §5

[5] = tested on: suture-induced corneal NV (HA and LA); test: Suture-induced inflammatory corneal angiogenesis (slit-lamp NV score, blood and lymphatic vessel density); format: in vivo, mice
Protocol: FIG. 5. Suture-induced Corneal HA is Reduced with Lipoxin. ATLa or vehicle was subconjunctivally injected every 48 h from 0 to 14 days after suture placement. A. In a masked fashion, corneal NV was scored biomicroscopically with a slit-lamp using a grid system. Values are expressed as the mean (±SEM) of 6 corneas. B. Whole corneal tissues were harvested on day 14 and double-stained with anti-CD31 (green) and anti-LYVE-1 (red) for epifluorescence microscopy (20× magnification). C. The density of blood vessels (CD31^high/LYVE-1^−) or lymphatic vessels (CD31^lowLYVE-1^high) covering the cornea was analyzed. Values are expressed as the mean (±SEM) of 6 corneas of per treatment group (**P<0.001 vs vehicle-treated group, t-test), and the data are representative of two independent experiments. […]
as §7, §8
To quantify corneal angiogenesis, digital pictures of corneal flat-mounts were taken using an image analysis system (Spot Image Analysis, Diagnostic Instruments, Sterling Heights, Mich.). The areas covered by CD31^high/LYVE-1^−-vessels (blood vessels) or CD31^lowLYVE-1^high vessels (lymphatics) were measured morphometrically using NIH Image J software (version 1.34s; http://rsb.info.nih.gov/ij). […]

EC = settings: cited from earlier work
IL-1α mRNA = test: Real-time PCR of IL-1α mRNA in suture-induced inflamed corneas; format: in vivo, mice; settings: 24 h and 72 h after suture placement; vs vehicle
Protocol: as §6, §5

VEGF-D mRNA = test: Real-time PCR of VEGF-D mRNA in suture-induced inflamed corneas; format: in vivo, mice; settings: after suture placement; vs vehicle-treated controls
Protocol: as §4, §5

TNF-α mRNA = test: Real-time PCR of TNF-α mRNA in suture-induced inflamed corneas; format: in vivo, mice; settings: vs vehicle
Protocol: as §6, §5

mouse IL-1 beta = test: ELISA of IL-1 beta protein in homogenates of suture-induced inflamed corneas; format: in vivo, mice
Protocol: FIG. 7. ATLa Regulates IL-1β. Mice were treated at Oh and 48 h after suture-placement with ATLa or vehicle. Whole corneas were excised at 72 h, and subsequently freeze-thawed 3 times. Cornea was then homogenized using a pellet pestile motor with additional protease inhibitors. Homogenates were centrifuged at 12,000 rpm for 5 minutes and the supernatant was assayed for mouse IL-1 beta via ELISA (eBioscience, USA) according to the manufacturer's instructions.
The standard model for induction of inflammatory corneal NV is associated with development of intrastromal vessels in close association with a mixed-cell (primarily neutrophilic) infiltrate.^14,15 Three interrupted sutures (11-0 nylon, Sharpoint; Vanguard, Houston, Tex.) were placed intrastromally with two stromal incursions extending over 120° of the corneal circumference each to induce inflammatory corneal NV, which is also associated with significant LA, as described previously.^14 The corneas were followed by slit-lamp biomicroscopy for corneal NV development. […]
as §7

neutrophils = test: Neutrophil infiltration in suture-induced inflamed corneas (NIMP-R14 staining of cross-sections); format: in vivo, mice; settings: for neutrophils per section: n=3, mean±SEM
Protocol: ATLa or vehicle was subconjunctivally injected at 0 h and 48 h after suture placement. For each compound treatment, eyes were enucleated from a group of mice at 24 h, and another group at 72 h after suture placement (3 eyes per group). Cross-sections were stained with anti-neutrophil (NIMP-R14) or anti-macrophage (F4/80) Ab, and 12 sections were used to enumerate the respective leukocyte populations. Results represent the mean (±SEM) of 3 eyes per group (*P<0.05, **P<0.001 vs vehicle-treated group, t-test), and data are representative of two independent experiments.
The standard model for induction of inflammatory corneal NV is associated with development of intrastromal vessels in close association with a mixed-cell (primarily neutrophilic) infiltrate.^14,15 Three interrupted sutures (11-0 nylon, Sharpoint; Vanguard, Houston, Tex.) were placed intrastromally with two stromal incursions extending over 120° of the corneal circumference each to induce inflammatory corneal NV, which is also associated with significant LA, as described previously.^14 The corneas were followed by slit-lamp biomicroscopy for corneal NV development. NV was graded between 0 and 3, with increments of 0.5, using a grid system per each corneal quadrant based on the centripetal extent of the neovascular branches from the limbus. Scores for each quadrant then summed to derive the NV index (range 0 to 12) for each eye, as previously described.^14
as §7, §8

SMILES: COC(=O)CCC[C@H](O)[C@H](O)/C=C/C=C/C=C\C=C\[C@H](O)COc1ccc(F)cc1 [ATLa, 15-epi-16-(para-fluoro)-phenoxy-lipoxin A4 methyl ester]
- BV density ([1]; n=4, mean±SEM): 5.9±0.4%
- LA stimulated by VEGF-A ([1]; vs vehicle): no significant reduction
- BV density ([2]; n=4, mean±SEM): 16.1±3.0%
- LA stimulated by IL-1β ([2]; vs vehicle): no significant reduction
- VEGFR-2 mRNA expression (VEGFR-2 mRNA): lower
- VEGFR-3 mRNA expression (VEGFR-3 mRNA): not significantly altered
- reduction in the increase of IL-1β expression levels (mRNA) (IL-1β mRNA): more than 50%
- macrophages per section (macrophages; n=3, mean±SEM): 46±5 cells/section
- reduction in macrophage infiltration (macrophages; vs vehicle control group): 25-40%
- VEGF-C mRNA expression (VEGF-C mRNA): lower
- local inactivation (stability) [3]: resists local inactivation
- macrophage phagocytosis [4]: increase
- VEGF-A mRNA expression (VEGF-A mRNA): lower
- angiogenic response (growth of corneal neovessels, slit lamp biomicroscopy) ([5]; 2-week time course, injection every 48 h, vs vehicle control): significant suppression
- BV density (CD31high/LYVE-1−) ([5]; day 14 after suture placement, n=6, mean±SEM): 8.26±0.63%
- density of lymphatic vessels (CD31low LYVE-1high) ([5]; day 14 after suture placement, vs vehicle controls): not observed
- EC adhesion (EC; VEGF-A-induced angiogenesis, references 37, 38): inhibition
- VEGF-A-induced EC proliferation (EC; reference 39): suppression
- expression of IL-1α (mRNA) (IL-1α mRNA): not significantly altered
- VEGF-D mRNA expression (VEGF-D mRNA): not significantly altered
- increase in TNF-α expression (mRNA) (TNF-α mRNA; 24 h after suture placement): significantly suppressed
- increase in TNF-α expression (mRNA) (TNF-α mRNA; 72 h after suture placement): not at 72 h
- IL-1 beta in corneas (mouse IL-1 beta; ELISA of corneal homogenate supernatant, 72 h, treated at 0 h and 48 h, n=4): 21.3 ± 0.8 pg/mL
- decrease in IL-1β protein level (mouse IL-1 beta; ELISA, 72 h after suture placement, vs vehicle-treated group): 70%
- inhibition of neutrophils recruitment into the inflamed corneas (neutrophils; 24 and 72 h after suture placement, 100 ng/10 μl subconjunctival at 0 h and 48 h, vs vehicle): ~30%
- neutrophils per section (neutrophils; 24 h after suture placement): 53±1 cells/section
- neutrophils per section (neutrophils; 72 h after suture placement): 34±5 cells/section

Reference: US20100105772A1, “USE OF NOVEL LIPID MEDIATORS TO INHIBIT ANGIOGENESIS” (priority 2008, published 2010)
